What was measured:
PI3Kδ = target: T1, PI3Kδ (Homo sapiens, UniProt O00329); assay: In vitro kinase activity (LabChip EZ Reader mobility shift), PI3Kδ; format: biochemical; conditions: for IC50: kinase subtype PI3Kδ (p110δ/p85a)
T1 construct: purchased Millipore 14-604-K
Description: (§1) Compounds: the compounds prepared in above examples of the present invention, each of which was prepared to a concentration of 10 mM in DMSO and diluted to […], 100 nM, 10 nM, 1 nM, 0.1 nM, 0.01 nM successively.
(§2) Reagents: PI3Kα (p110α(p85a), purchased from Invitrogen, Cat.No. PV4788; PIK3Cδ (p110δ/p85a), purchased from Millipore, Cat.No. 14-604-K; PIK3Cβ (p110β), purchased from Millipore, Cat.No. 14-603-K; PIK3Cγ (pp110γ), purchased from Invitrogen, Cat.No. PR8641C; DMSO, purchased from Sigma; EDTA, purchased from Sigma; 1× kinase buffer (50 mM HEPES, pH 7.5, 0.0015% Brij-35, 10 mM MgCl2, 2 mM DTT), which was prepared before use; termination solution (100 mM HEPES, pH 7.5, 0.015% Brij-35, 0.2% Coating Reagent#3, 50 mM EDTA), which was prepared before use.
(§3) Instruments: LabChip EZ Reader purchased from Caliper, USA.
(§4) 2.1 10 μl solution of each concentration of each compound was placed into 96-well plate and 90 μl of 1× kinase buffer was added. DMSO control group and control group without kinase activity were set up, which all contained 10 μl DMSO and 90 μl of 1× kinase buffer. Each group was mixed well at room temperature for 10 min, and then 5 μl of each group was transferred to a 384-well plate.
(§5) 2.2 Kinases were dissolved in 1× kinase buffer to prepare a 2.5× kinase solution. 10 μl of 2.5× kinase solution was transferred to the 384-well plate containing compounds of different concentrations. 10 μl of 2.5× kinase solution was added to DMSO control group and 10 μl of 1× kinase buffer without kinase was added to control group without kinase activity. The plate was incubated at room temperature for 10 min.
(§6) 2.3 ATP and the polypeptide labeled with FAM were dissolved in 1× kinase buffer to prepare 2.5× substrate solution. Then 10 μl of 2.5× substrate solution was transferred to the 384-well plate and incubated at 28° C. for 1 h.
(§7) 2.4 25 μl of termination solution was added to each well to terminate the reaction.
(§8) 2.5 The plate was placed on the LabChip EZ Reader to read the data of conversion rate and inhibitory rate (1%) was calculated according to formula: I %=(Max−Com)/(Max−Min)×100, wherein Max was the conversion rate of DMSO control group, Min was the conversion rate of control group without kinase activity, Com was the conversion rate of compound treatment group. IC50 was fitted by XLfit processing of the data.

PI3Kβ = target: T2, PI3Kβ (Homo sapiens, UniProt P42338); assay: In vitro kinase activity (LabChip EZ Reader mobility shift), PI3Kβ; format: biochemical; conditions: kinase subtype PI3Kβ (p110β)
T2 construct: purchased Millipore 14-603-K
Description: as §1, §2, §3, §4, §5, §6, §7, §8

PI3Kγ = target: T3, PI3Kγ (Homo sapiens, UniProt P48736); assay: In vitro kinase activity (LabChip EZ Reader mobility shift), PI3Kγ; format: biochemical; conditions: kinase subtype PI3Kγ (p110γ)
T3 construct: purchased Invitrogen PR8641C
Description: as §1, §2, §3, §4, §5, §6, §7, §8

PI3Kα = target: T4, PI3Kα (Homo sapiens, UniProt P42336); assay: In vitro kinase activity (LabChip EZ Reader mobility shift), PI3Kα; format: biochemical; conditions: kinase subtype PI3Kα (p110α/p85a)
T4 construct: purchased Invitrogen PV4788
Description: as §1, §2, §3, §4, §5, §6, §7, §8

SU-DHL-5 lymphoma cells = assay: In vitro cell activity, CellTiter-Glo cell viability, SU-DHL-5; format: cell-based; conditions: Homo sapiens, SU-DHL-5 lymphoma cell line, 72 h
Description: Compounds: the compounds prepared in above examples of the present invention, each of which was prepared to a concentration of 10 mM in DMSO and diluted 3 times to 20000.00 nM, 6666.67 nM, 2222.22 nM, 740.74 nM, 246.91 nM, 27.43 nM, 9.14 nM, 3.05 nM successively.
The lymphoma cell lines SU-DHL-5 and SU-DHL-6 were purchased from the American Type Culture Collection (ATCC).
Reagents: PRMI-1640, purchased from Invitrogen (USA); FBS, purchased from Invitrogen (USA); EDTA, purchased from Sigma (USA); CellTiter-Glo® Luminescent Cell Viability Assay Kit, purchased from Progema (USA); Backseal membrane, purchased from Perkin Elmer (USA).
The cells were thawed in a 37° C. water bath and then transferred to 15 ml preheated medium. The cells were centrifuged at 1000 rpm for 5 min and the medium was discarded. The cells were resuspended in 15 ml fresh medium and transferred to T75 culture flask and incubated in an incubator at 37° C. with 5% CO2. The medium was replaced with fresh medium 24 h later.
The resuscitated cells above were transferred to a 50 ml sterile centrifuge tube and centrifuged at 1000 rpm for 5 min. The medium was discarded, and the cells were dispersed uniformly and counted. The appropriate cell concentration was adjusted in 15 ml fresh medium and added to T75 culture flask. The flask was incubated in an incubator at 37° C. with 5% CO2.
When the cells in the T75 culture flask grew to 1×10^5˜1×10^6 cells/ml, the cells were resuspended with fresh medium (RPMI-1640+20% FBS) and counted. The resuspended cells were adjusted to the following eight concentrations: 1×10^4 cells/ml, 2×10^4 cells/ml, 3×10^4 cells/ml, 5×10^4 cells/ml, 8×10^4 cells/ml, 1×10^5 cells/ml, 1.5×10^5 cells/ml, and 2×10^5 cells/ml. The above cell suspensions were added to 96-well cell culture plate, 100 μl each well (1×10^3 cells/ml, 2×10^3 cells/ml, 3×10^3 cells/ml, 5×10^3 cells/ml, 8×10^3 cells/ml, 1×10^4 cells/ml, 1.5×10^4 cells/ml, and 2×10^4 cells/ml, respectively). Each concentration was done double in three plates. 72 h later, 100 μl CellTiter-Glo® Luminescent Cell Viability Assay buffer was added to test wells and shaken gently. 10 min later, the Assay plate was attached at the bottom by Backseal membrane and placed on Envison to detect the fluorescence reading. Cell survive (%) was calculated according to the formula: cell survive (%)=(Com−Min)/(Max−Min), wherein Max was the reading of solvent control group, Min was the reading of control group without cells, and Com was the reading of compound treatment group.

T4 sequence (P42336 whole entry): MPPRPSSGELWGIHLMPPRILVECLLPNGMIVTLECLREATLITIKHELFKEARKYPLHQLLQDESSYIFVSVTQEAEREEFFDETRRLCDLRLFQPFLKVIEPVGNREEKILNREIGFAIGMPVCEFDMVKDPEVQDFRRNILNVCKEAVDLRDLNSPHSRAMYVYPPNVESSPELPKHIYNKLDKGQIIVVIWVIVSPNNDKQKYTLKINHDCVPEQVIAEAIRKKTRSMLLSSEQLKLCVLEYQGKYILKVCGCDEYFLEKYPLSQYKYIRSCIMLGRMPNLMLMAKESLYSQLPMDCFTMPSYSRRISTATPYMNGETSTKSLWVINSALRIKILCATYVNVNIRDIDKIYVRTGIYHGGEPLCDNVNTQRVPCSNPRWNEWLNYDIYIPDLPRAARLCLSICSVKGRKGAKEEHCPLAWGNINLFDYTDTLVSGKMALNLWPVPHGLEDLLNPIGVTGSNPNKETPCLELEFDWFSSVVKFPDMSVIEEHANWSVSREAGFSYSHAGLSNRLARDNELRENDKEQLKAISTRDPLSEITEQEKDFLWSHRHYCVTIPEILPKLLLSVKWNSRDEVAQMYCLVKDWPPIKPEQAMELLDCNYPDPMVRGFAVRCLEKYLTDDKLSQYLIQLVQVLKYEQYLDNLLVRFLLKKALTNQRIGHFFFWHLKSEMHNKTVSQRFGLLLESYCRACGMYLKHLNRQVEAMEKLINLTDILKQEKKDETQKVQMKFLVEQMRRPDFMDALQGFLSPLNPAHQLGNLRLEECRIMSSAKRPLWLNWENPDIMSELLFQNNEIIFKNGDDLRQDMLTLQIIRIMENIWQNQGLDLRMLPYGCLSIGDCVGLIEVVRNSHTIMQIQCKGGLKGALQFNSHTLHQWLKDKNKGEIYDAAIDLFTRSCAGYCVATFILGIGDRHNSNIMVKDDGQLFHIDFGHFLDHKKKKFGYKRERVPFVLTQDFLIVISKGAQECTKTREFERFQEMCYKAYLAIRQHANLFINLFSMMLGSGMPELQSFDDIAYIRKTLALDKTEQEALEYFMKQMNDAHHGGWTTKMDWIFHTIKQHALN
T4 sequence (P27986 whole entry partner): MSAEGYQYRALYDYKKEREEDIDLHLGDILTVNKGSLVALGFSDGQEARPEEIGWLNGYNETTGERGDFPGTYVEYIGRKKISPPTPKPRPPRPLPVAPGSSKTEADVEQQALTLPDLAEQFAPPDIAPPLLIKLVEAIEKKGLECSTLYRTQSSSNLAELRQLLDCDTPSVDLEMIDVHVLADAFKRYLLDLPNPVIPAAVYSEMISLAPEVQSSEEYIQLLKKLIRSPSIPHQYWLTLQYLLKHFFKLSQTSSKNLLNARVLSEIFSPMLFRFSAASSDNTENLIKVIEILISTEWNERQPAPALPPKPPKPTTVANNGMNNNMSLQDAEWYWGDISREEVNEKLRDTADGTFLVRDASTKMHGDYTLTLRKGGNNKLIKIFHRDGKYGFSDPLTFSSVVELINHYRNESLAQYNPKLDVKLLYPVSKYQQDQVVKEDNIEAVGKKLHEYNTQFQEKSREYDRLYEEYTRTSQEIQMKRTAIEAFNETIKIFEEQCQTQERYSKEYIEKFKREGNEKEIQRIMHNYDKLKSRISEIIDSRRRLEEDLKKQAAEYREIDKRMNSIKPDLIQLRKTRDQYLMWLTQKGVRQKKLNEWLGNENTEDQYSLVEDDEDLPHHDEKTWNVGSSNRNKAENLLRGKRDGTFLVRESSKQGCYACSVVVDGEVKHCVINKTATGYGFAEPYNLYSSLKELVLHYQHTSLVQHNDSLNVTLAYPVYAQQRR
T3 sequence (P48736 whole entry): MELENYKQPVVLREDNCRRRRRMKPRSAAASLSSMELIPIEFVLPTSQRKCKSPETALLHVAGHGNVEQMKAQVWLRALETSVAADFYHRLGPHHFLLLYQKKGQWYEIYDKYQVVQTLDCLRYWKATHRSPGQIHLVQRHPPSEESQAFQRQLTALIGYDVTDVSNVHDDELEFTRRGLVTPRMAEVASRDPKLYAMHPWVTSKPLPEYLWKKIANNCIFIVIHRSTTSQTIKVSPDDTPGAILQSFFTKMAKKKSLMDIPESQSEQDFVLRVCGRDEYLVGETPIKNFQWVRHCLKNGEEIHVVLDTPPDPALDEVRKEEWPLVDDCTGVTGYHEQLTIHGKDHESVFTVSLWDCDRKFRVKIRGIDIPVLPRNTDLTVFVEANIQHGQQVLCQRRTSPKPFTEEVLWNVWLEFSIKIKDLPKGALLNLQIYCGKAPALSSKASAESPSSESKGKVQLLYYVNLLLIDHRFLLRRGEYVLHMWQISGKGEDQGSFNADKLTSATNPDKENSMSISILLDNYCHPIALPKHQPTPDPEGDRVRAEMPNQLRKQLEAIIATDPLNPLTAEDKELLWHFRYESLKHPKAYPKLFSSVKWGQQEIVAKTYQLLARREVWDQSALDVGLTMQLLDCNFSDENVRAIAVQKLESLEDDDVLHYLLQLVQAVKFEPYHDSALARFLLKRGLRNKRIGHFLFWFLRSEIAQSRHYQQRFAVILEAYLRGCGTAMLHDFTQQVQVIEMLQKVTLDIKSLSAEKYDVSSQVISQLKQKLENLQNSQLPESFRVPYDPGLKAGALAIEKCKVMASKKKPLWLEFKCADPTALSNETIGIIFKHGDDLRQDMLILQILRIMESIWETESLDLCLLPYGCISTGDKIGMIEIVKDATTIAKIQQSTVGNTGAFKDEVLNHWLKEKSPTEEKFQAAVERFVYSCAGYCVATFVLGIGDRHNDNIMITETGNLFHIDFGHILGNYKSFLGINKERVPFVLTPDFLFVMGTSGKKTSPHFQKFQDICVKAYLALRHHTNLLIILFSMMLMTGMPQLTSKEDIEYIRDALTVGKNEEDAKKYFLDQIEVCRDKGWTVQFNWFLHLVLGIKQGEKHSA
T2 sequence (P42338 whole entry): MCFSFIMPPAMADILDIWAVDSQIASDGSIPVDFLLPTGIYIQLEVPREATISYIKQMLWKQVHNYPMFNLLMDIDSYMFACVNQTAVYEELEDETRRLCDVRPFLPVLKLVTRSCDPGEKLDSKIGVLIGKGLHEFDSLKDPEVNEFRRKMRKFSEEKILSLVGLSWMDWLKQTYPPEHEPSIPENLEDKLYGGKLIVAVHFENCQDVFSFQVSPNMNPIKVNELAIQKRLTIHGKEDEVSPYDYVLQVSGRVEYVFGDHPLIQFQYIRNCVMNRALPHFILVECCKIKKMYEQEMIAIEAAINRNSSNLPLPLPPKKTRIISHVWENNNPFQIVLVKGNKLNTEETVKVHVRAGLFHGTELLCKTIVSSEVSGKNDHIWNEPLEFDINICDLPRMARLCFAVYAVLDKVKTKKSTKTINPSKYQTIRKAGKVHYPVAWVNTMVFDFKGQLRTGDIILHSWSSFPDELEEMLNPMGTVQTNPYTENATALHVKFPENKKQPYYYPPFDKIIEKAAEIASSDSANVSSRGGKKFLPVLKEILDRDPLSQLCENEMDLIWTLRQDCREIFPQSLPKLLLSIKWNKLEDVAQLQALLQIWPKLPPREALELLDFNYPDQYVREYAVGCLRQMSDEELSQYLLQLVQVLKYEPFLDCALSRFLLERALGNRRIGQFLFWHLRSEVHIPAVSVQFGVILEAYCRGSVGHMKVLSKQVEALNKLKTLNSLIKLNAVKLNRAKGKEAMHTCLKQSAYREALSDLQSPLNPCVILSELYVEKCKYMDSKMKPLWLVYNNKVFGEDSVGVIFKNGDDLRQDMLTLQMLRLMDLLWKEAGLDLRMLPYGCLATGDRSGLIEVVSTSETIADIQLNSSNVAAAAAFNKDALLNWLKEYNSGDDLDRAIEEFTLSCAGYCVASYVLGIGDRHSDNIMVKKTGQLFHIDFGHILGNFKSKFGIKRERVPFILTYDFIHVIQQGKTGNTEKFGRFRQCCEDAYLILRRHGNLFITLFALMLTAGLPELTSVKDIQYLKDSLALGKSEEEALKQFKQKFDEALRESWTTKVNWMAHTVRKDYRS
T2 sequence (P27986 whole entry partner): as the sequence (P27986 whole entry partner) above
T1 sequence (O00329 whole entry): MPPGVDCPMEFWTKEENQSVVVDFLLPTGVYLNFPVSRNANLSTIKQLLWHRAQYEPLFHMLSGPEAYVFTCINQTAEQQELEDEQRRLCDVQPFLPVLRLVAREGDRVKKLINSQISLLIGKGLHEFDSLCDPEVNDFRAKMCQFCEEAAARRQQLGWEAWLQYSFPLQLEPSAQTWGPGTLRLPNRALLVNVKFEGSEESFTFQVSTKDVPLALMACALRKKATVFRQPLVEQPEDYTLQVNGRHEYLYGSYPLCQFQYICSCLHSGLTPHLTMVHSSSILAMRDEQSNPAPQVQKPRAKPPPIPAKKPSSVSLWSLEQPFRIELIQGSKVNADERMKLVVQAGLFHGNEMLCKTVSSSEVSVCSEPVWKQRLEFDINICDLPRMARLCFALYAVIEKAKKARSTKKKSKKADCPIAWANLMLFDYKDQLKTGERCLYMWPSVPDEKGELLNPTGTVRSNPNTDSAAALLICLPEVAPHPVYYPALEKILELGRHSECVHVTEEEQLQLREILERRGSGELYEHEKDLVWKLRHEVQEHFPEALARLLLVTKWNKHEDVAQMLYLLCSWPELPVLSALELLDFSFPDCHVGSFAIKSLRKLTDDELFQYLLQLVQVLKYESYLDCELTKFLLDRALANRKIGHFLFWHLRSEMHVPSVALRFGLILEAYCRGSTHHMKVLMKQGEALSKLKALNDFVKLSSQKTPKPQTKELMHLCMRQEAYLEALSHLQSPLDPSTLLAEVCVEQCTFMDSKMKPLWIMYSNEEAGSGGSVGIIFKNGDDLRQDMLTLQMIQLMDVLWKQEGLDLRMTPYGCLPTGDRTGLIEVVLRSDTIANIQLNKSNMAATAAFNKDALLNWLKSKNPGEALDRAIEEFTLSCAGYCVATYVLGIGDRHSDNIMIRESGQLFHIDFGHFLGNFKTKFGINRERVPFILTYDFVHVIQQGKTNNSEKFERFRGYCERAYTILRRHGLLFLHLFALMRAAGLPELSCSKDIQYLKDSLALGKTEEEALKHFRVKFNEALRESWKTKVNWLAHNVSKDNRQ
T1 sequence (P27986 whole entry partner): as the sequence (P27986 whole entry partner) above

selectivity (PI3Kδ over the other PI3K subtypes), in words (PI3Kδ; PI3Kδ versus PI3Kα, PI3Kβ, PI3Kγ)	IC50 (PI3Kδ)	IC50 (PI3Kβ)	IC50 (PI3Kγ)	IC50 (PI3Kα)	IC50 (SU-DHL-5 lymphoma cells)	Structure (SMILES)
poor	20 nM	–	–	–	–	CC(Nc1ncnc(N)c1C#N)c1c(-c2cc(F)cc(F)c2)c(=O)c2cc(F)ccc2n1C (stereo not shown) [Comparative Example 1, 4-Amino-5-cyano-6-(1-(3-(3,5-difluorophenyl)-6-fluoro-1-methyl-4-oxo-1,4-dihydroquinoline-2-yl)ethylamino)pyrimidine, reference compound]
–	13.5 nM	–	–	–	–	N#Cc1c(N)nc(N)nc1NCc1c(-c2ccccc2)oc2ccccc2c1=O [Example 2, 2,4-Diamino-5-cyano-6-(4-oxo-2-phenyl-4H-chromen-3-yl) methylaminopyrimidine]
–	17 nM	> 1000 nM	> 1000 nM	> 1000 nM	0.86 µM	CC(Nc1ncnc(N)c1C#N)c1c(-c2ccccc2)oc2ccccc2c1=O (stereo not shown) [Example 3, 4-Amino-5-cyano-6-(1-(4-oxo-2-phenyl-4H-chromen-3-yl)ethylamino) pyrimidine]
–	11 nM	> 1000 nM	> 1000 nM	> 1000 nM	0.61 µM	CC(Nc1ncnc(N)c1C#N)c1c(-c2ccccc2)oc2c(Cl)cccc2c1=O (stereo not shown) [Example 5, 4-Amino-5-cyano-6-(1-(8-chloro-4-oxo-2-phenyl-4H-chromen-3-yl)ethylamino) pyrimidine]
–	9.5 nM	881 nM	84 nM	> 1000 nM	1.23 µM	CC(Nc1nc(N)nc(N)c1C#N)c1c(-c2ccccc2)oc2c(Cl)cccc2c1=O (stereo not shown) [Example 6, 2,4-Diamino-5-cyano-6-(1-(8-chloro-4-oxo-2-phenyl-4H-chromen-3-yl)ethylamino)pyrimidine]
–	5 nM	> 1000 nM	> 1000 nM	> 1000 nM	1.43 µM	CC(Nc1ncnc(N)c1C#N)c1c(-c2ccccc2)oc2c(F)cccc2c1=O (stereo not shown) [Example 7, 4-Amino-5-cyano-6-(1-(8-fluoro-4-oxo-2-phenyl-4H-chromen-3-yl)ethylamino) pyrimidine]
–	6.6 nM	385 nM	134 nM	> 1000 nM	1.02 µM	CC(Nc1nc(N)nc(N)c1C#N)c1c(-c2ccccc2)oc2c(F)cccc2c1=O (stereo not shown) [Example 8, 2,4-Diamino-5-cyano-6-(1-(8-fluoro-4-oxo-2-phenyl-4H-chromen-3-yl)ethylamino) pyrimidine]
–	3.8 nM	139 nM	66 nM	219 nM	0.58 µM	CC(Nc1ncnc(N)c1C#N)c1c(-c2ccccc2)[nH]c2c(Cl)cccc2c1=O (stereo not shown) [Example 9, 4-Amino-5-cyano-6-((1-(8-chloro-4-oxo-2-phenyl-1,4-dihydroquinolin-3-yl)ethyl)amino)pyrimidine]
–	5.8 nM	> 1000 nM	> 1000 nM	> 1000 nM	1.11 µM	CCC(Nc1ncnc(N)c1C#N)c1c(-c2ccccc2)[nH]c2ccccc2c1=O (stereo not shown) [Example 13, 4-Amino-5-cyano-6-((1-(4-oxo-2-phenyl-1,4-dihydroquinolin-3-yl)propyl)amino)pyrimidine]
–	21 nM	> 1000 nM	> 1000 nM	> 1000 nM	4.94 µM	N#Cc1c(N)ncnc1NCc1c(-c2ccccc2)[nH]c2ccccc2c1=O [Example 15]
–	2 nM	99 nM	61 nM	336 nM	3.4 µM	N#Cc1c(N)nc(N)nc1NCc1c(-c2ccccc2)[nH]c2c(Cl)cccc2c1=O [Example 18]
–	11 nM	635 nM	60 nM	675 nM	–	CC(Nc1nc(N)nc(N)c1C#N)c1c(-c2ccccc2)[nH]c2ccccc2c1=O (stereo not shown) [Example 22, 2,4-Diamino-5-cyano-6-((1-(4-oxo-2-phenyl-1,4-dihydroquinolin-3-yl)ethyl)amino)pyrimidine]
–	1.4 nM	60 nM	5.7 nM	114 nM	–	CC(Nc1nc(N)nc(N)c1C#N)c1c(-c2ccccc2)[nH]c2c(Cl)cccc2c1=O (stereo not shown) [Example 23, 2,4-Diamino-5-cyano-6-((1-(8-chloro-4-oxo-2-phenyl-1,4-dihydroquinolin-3-yl)ethyl)amino)pyrimidine]
–	1.8 nM	113 nM	21 nM	127 nM	–	CC(Nc1nc(N)nc(N)c1C#N)c1c(-c2ccccc2)n(C)c2ccccc2c1=O (stereo not shown) [Example 25, 2,4-Diamino-5-cyano-6-((1-(1-methyl-4-oxo-2-phenyl-1,4-dihydroquinolin-3-yl)ethyl)amino) pyrimidine]
–	2.3 nM	972 nM	814 nM	> 1000 nM	–	CC(Nc1ncnc(N)c1C#N)c1c(-c2cccc(F)c2)n(C)c2ccccc2c1=O (stereo not shown) [Example 26, 4-Amino-5-cyano-6-((1-(1-methyl-4-oxo-2-(3-fluorophenyl)-1,4-dihydroquinolin-3-yl)ethyl)amino) pyrimidine]
–	1.4 nM	38 nM	11 nM	39 nM	–	CC(Nc1nc(N)nc(N)c1C#N)c1c(-c2ccccc2)n(C)c2c(Cl)cccc2c1=O (stereo not shown) [Example 27, 2,4-Diamino-5-cyano-6-((1-(8-chloro-1-methyl-4-oxo-2-phenyl-1,4-dihydroquinolin-3-yl)ethyl)amino)pyrimidine]
–	3.6 nM	> 1000 nM	155 nM	> 1000 nM	–	CC(Nc1nc(N)nc(N)c1C#N)c1c(-c2cccc(F)c2)oc2ccccc2c1=O (stereo not shown) [Example 30, 2,4-Diamino-5-cyano-6-(1-(2-(3-fluorophenyl)-4-oxo-4H-chromen-3-yl)ethylamino) pyrimidine]
–	4.8 nM	> 1000 nM	673 nM	> 1000 nM	–	CCC(Nc1nc(N)nc(N)c1C#N)c1c(-c2ccccc2)oc2ccccc2c1=O (stereo not shown) [Example 32, 2,4-Diamino-5-cyano-6-(1-(4-oxo-2-phenyl-4H-chromen-3-yl)propylamino) pyrimidine]
